Laboratory results published in ChEMBL document CHEMBL4616599, “Molecular mechanism of C-phycocyanin induced apoptosis in LNCaP cells” (Bioorg Med Chem, 2020).
Activity calls are given as the source filed them.

Key:
Format in all cases: functional, cell-based
[1] = tested on: LNCaP; assay: Induction of apoptosis in human LNCAP cells assessed as increase in cleaved PARP expression at 500 ug/ml measured after 24 hrs by western blot analysis
[2] = tested on: LNCaP; assay: Induction of apoptosis in human LNCAP cells assessed as increase in cleaved PARP expression at 10 uM measured after 24 hrs by Western blot analysis
[3] = tested on: LNCaP; assay: Induction of apoptosis in human LNCAP cells assessed as decrease in uncleaved PARP expression at 10 uM measured after 24 hrs by Western blot analysis
[4] = tested on: LNCaP; assay: Cytotoxicity against human LNCAP cells assessed as reduction in cell viability at 10 uM after 24 hrs by trypan blue dye exclusion assay
[5] = tested on: LNCaP; assay: Induction of apoptosis in human LNCAP cells assessed as up regulation of p53 expression at 10 uM measured after 24 hrs by immunoblot analysis
[6] = tested on: LNCaP; assay: Induction of apoptosis in human LNCAP cells assessed as up regulation of p21 expression at 10 uM measured after 24 hrs by immunoblot analysis

Measured: Activity

CC[C@@]1(O)C(=O)OCc2c1cc1n(c2=O)Cc2cc3c(CN(C)C)c(O)ccc3nc2-1
active: all assays above
